38 compounds from patent US12065445B2, “CDK2 inhibitors and methods of using the same” (Cedilla Therapeutics, Inc., priority 2021, dated 2024) can be followed below.

In one assay the test system is Kuramochi cells. The assay can be described thus: BrdU Cell Proliferation Assay. It counts as cell-based. The settings on record: read-out: BrdU - KURAMOCHI.1: IC50. Put shortly:
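Kuramochi cells were seeded at 2,000 cells/well, adhered overnight, then treated with a 10-point, 3-fold compound dilution series for 4 days. Proliferation was measured by a 1-hour BrdU pulse, anti-BrdU peroxidase colorimetric ELISA and 450 nm absorbance. Values were background-subtracted and normalized to DMSO wells.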

Assay [1] concerns Kuramochi cells labeled with mApple-H2B. Briefly: IncuCyte Cell Proliferation Assay. The class given is cell-based. As to the method:
IncuCyte® assay was used to measure the effect of disclosed compounds on cell proliferation. Fluorescent microscopy images of cells were taken immediately after compound treatment and 72 hours later. Image analysis software was used to obtain cell counts as a function of compound concentration. Kuramochi cells labeled with mApple-H2B were seeded on 384-well assay-ready plates. Plates were placed in an IncuCyte® (Sartorius) and scanned at 0 and 72 hours. IncuCyte® software was used to count the number of fluorescent nuclei in each well. The fold change in cell count from 0 to 72 hours in wells treated with increasing compounds concentrations (10 pts, ½ log dilution, 20 μM top concentration) was normalized to DMSO control wells. The normalized cell counts were fit with dose response curves and a […] was calculated.

Usually IC50 stands for the midpoint of a concentration-inhibition curve. For the compound `CNC(=O)[C@@H](NC(=O)[C@@H]1CN(Cc2cncs2)CC12CN(C(=O)[C@H]1CC1(C)C)C2)[C@@H](C)OCc1ccccc1` [I-51A], the IC50 in the assay on Kuramochi cells lay in the range of 5 to 10 µM; in assay [1] (72 h), 5 to 20 µM. For the compound `C[C@@H](OCc1ccccc1)[C@H](NC(=O)C1CN(C(=O)c2cnn(Cc3ccccc3)c2)CC12CN(C(=O)[C@H]1CC1(C)C)C2)C(=O)N1CCCCC1` (stereo partly drawn) [I-97, 6-(1-benzyl-1H-pyrazole-4-carbonyl)-N-((2S,3R)-3-(benzyloxy)-1-oxo-1-(piperidin-1-yl)butan-2-yl)-2-((S)-2,2-dimethylcyclopropanecarbonyl)-2,6-diazaspiro[3.4]octane-8-carboxamide], the IC50 (in the assay with Kuramochi cells; in assay [1] (72 h)) was 0.5 to 5 µM throughout. In the case of `C[C@@H]1C[C@H](C)CN(C(=O)[C@@H](NC(=O)C2CN(C(=O)c3cnn(Cc4ccccc4)c3)CC23CN(C(=O)[C@H]2CC2(C)C)C3)[C@@H](C)OCC2CCCCC2)C1` (stereo partly shown) [I-104], the IC50 is at most 0.5 µM in the assay on Kuramochi cells and 0.5 to 5 µM in assay [1] (72 h).

As for `C[C@@H](OCC1CCCCC1)[C@H](NC(=O)C1CN(C(=O)c2cnn(Cc3ccccc3)c2)CC12CN(C(=O)[C@H]1CC1(C)C)C2)C(=O)N1CCCC(CO)C1` (stereo partly shown) [I-105], the IC50 (in the assay on Kuramochi cells; in assay [1] (72 h)) was at most 0.5 µM throughout. Regarding `C[C@@H](OCC1CCCCC1)[C@H](NC(=O)C1CN(C(=O)c2cnn(Cc3ccccc3)c2)CC12CN(C(=O)[C@H]1CC1(C)C)C2)C(=O)N1CC2(CCC2)C1` (stereo partly shown) [I-107], the IC50 (in the assay with Kuramochi cells; in assay [1] (72 h)) was at most 0.5 µM throughout. On to `CNC(=O)[C@@H](NC(=O)[C@H]1CN(C(=O)c2cnn(Cc3ccccc3)c2)CC12CN(C(=O)[C@H]1CC1(C)C)C2)[C@@H](C)OCC1CCCC1` [I-110B], for which the figures for the IC50 (in the assay on Kuramochi cells; in assay [1] (72 h)) were 5 to 10 µM and 5 to 20 µM, respectively. For `C[C@@H](OCC1CCCCC1)[C@H](NC(=O)[C@@H]1CN(C(=O)c2cnn(C(F)(F)F)c2)CC12CN(C(=O)[C@H]1CC1(C)C)C2)C(=O)N1CCCCC1` [I-115] the same measures were over 10 µM and 5 to 20 µM. For `CC(=O)N1C[C@@H](C(=O)N[C@H](C(=O)N2CCCCC2)[C@@H](C)OCC2CCCCC2)C2(C1)CN(C(=O)[C@H]1CC1(C)C)C2` [I-118] the same measures were over 10 µM and over 20 µM. Taken in the same sequence, the figures for `CNC(=O)[C@@H](NC(=O)[C@@H]1CN(C(=O)c2cnn(Cc3ccccc3)c2)CC12CN(C(=O)[C@H]1CC1(C)C)C2)[C@@H](C)OCC1CCCCC1` [I-123A, (S)-6-(1-benzyl-1H-pyrazole-4-carbonyl)-N-((2S,3R)-3-(cyclohexylmethoxy)-1-(methylamino)-1-oxobutan-2-yl)-2-((S)-2,2-dimethylcyclopropane-1-carbonyl)-2,6-diazaspiro[3.4]octane-8-carboxamide] were at most 0.5 µM and 0.5 to 5 µM. Consider `CNC(=O)[C@@H](NC(=O)[C@@H]1CN(C(=O)c2cnn(Cc3ccccc3)c2)CC12CN(C(=O)[C@H]1CC1(C)C)C2)[C@@H](C)OCCC1CCCCC1` [I-125A], for which the IC50 (with Kuramochi cells; in assay [1] (72 h)) was at most 0.5 µM in each case. As to `CNC(=O)[C@@H](NC(=O)[C@H]1CN(C(=O)c2cnn(Cc3ccccc3)c2)CC12CN(C(=O)[C@H]1CC1(C)C)C2)[C@@H](C)OCCC1CCCCC1` [I-125B], the IC50 (in the assay with Kuramochi cells; in assay [1] (72 h)) was 0.5 to 5 µM throughout. In the case of `CNC(=O)[C@@H](NC(=O)[C@@H]1CN(C(=O)c2cncs2)CC12CN(C(=O)[C@H]1CC1(C)C)C2)[C@@H](C)OCC1CCCCC1` [I-129A], the IC50 (in the assay on Kuramochi cells; in assay [1] (72 h)) was 0.5 to 5 µM in each case. For `CNC(=O)[C@@H](NC(=O)[C@@H]1CN(C(=O)c2cnn(Cc3ccccc3)c2)CC12CN(C(=O)[C@H]1CC1(C)C)C2)[C@@H](C)OCC(C)(C)C` [I-130A], the IC50 lay in the range of 5 to 10 µM in the assay with Kuramochi cells and 5 to 20 µM in assay [1] (72 h). Taken in the same sequence, the figures for `CO[C@H]1COCC[C@@H]1NC(=O)[C@@H]1CN(C(=O)c2cnn(Cc3ccccc3)c2)CC12CN(C(=O)[C@H]1CC1(C)C)C2` [I-131A] were over 10 µM and over 20 µM. On to `C[C@@H](OCC1CCCCC1)[C@H](NC(=O)[C@@H]1CN(C(=O)c2cnn(CC(F)(F)F)c2)CC12CN(C(=O)[C@H]1CC1(C)C)C2)C(=O)N1CCCCC1` [I-132], for which the IC50 (in the assay on Kuramochi cells; in assay [1] (72 h)) was 0.5 to 5 µM in each case. Consider `CC1(C)C[C@@H]1C(=O)N1CC2(CN(C(=O)c3cnn(Cc4ccccc4)c3)C[C@@H]2C(=O)N[C@H]2CCc3cc(Cl)ccc32)C1` [I-133B], for which the IC50 was over 10 µM in the assay with Kuramochi cells and over 20 µM in assay [1] (72 h). Taken in the same sequence, the figures for `CO[C@H]1COCC[C@H]1NC(=O)[C@@H]1CN(C(=O)c2cnn(Cc3ccccc3)c2)CC12CN(C(=O)[C@H]1CC1(C)C)C2` [I-134A] were over 10 µM and over 20 µM. Taken in the same sequence, the figures for `CO[C@H]1COCC[C@H]1NC(=O)[C@H]1CN(C(=O)c2cnn(Cc3ccccc3)c2)CC12CN(C(=O)[C@H]1CC1(C)C)C2` [I-134B] were over 10 µM and over 20 µM. With `C[C@@H](OCC1CCCCC1)[C@@H](CO)NC(=O)[C@@H]1CN(C(=O)c2cnn(Cc3ccccc3)c2)CC12CN(C(=O)[C@H]1CC1(C)C)C2` [I-135A], the IC50 (in the assay on Kuramochi cells; in assay [1] (72 h)) was 0.5 to 5 µM in each case.

For `C[C@@H](OCC1CCCCC1)[C@@H](CO)NC(=O)[C@H]1CN(C(=O)c2cnn(Cc3ccccc3)c2)CC12CN(C(=O)[C@H]1CC1(C)C)C2` [I-135B], the IC50 with Kuramochi cells was over 10 µM; in assay [1] (72 h), 5 to 20 µM. For `CNC(=O)[C@@H](NC(=O)[C@@H]1CN(C(=O)c2cnn(Cc3ccc(F)cc3)c2)CC12CN(C(=O)[C@H]1CC1(C)C)C2)[C@@H](C)OCc1ccc(F)cc1` [I-136A] the same measures were 0.5 to 5 µM and 5 to 20 µM. For `CNC(=O)[C@@H](NC(=O)[C@@H]1CN(C(=O)c2cnn(Cc3ccccc3)c2)CC12CN(C(=O)[C@H]1CC1(C)C)C2)[C@@H](C)OCC(C)C` [I-137A] the same measures were over 10 µM and over 20 µM. Taken in the same sequence, the figures for `CNC(=O)[C@@H](NC(=O)[C@H]1CN(C(=O)c2cnn(Cc3ccccc3)c2)CC12CN(C(=O)[C@H]1CC1(C)C)C2)[C@@H](C)OCC(C)C` [I-137B] were over 10 µM and over 20 µM.

Turning to `C[C@@H](OCC12CCC(CC1)OC2)[C@H](NC(=O)[C@@H]1CN(C(=O)c2cncs2)CC12CN(C(=O)[C@H]1CC1(C)C)C2)C(=O)N1CCC[C@H](COC(F)(F)F)C1` [I-460], the IC50 in assay [1] (72 h) was in the range of 0.5 to 5 µM. `C[C@@H](OCC12CCC(CC1)OC2)[C@H](NC(=O)[C@@H]1CN(C(=O)c2cncs2)CC12CN(C(=O)[C@H]1CC1(C)C)C2)C(=O)N1CCC[C@H](COC(F)F)C1` [I-461] gave an IC50 in assay [1] (72 h) of 0.5 to 5 µM. For `COC[C@H]1CCCN(C(=O)[C@@H](NC(=O)[C@@H]2CN(C(=O)c3cncs3)CC23CN(C(=O)[C@H]2CC2(C)C)C3)[C@@H](C)O[C@@H](C)C2CCCCC2)C1` [I-467], in assay [1] (72 hours), the IC50 was in the range of 0.5 to 5 µM. In the case of `C[C@@H](OCc1ccc(C(F)(F)F)cc1)[C@H](NC(=O)[C@@H]1CN(C(=O)c2cncs2)CC12CN(C(=O)[C@H]1CC1(C)C)C2)C(=O)N1C2CCC1COC2` [I-470], the IC50 in assay [1] (72 h) is 0.5 to 5 µM. On to `C[C@@H](OCC12CCC(CC1)OC2)[C@H](NC(=O)[C@@H]1CN(C(=O)c2sc(Cl)nc2Cl)CC12CN(C(=O)C(C)(C)C1CC1)C2)C(C)(C)O` [I-471], for which, in assay [1] (72 h), the IC50 was over 20 µM. The same measure, in the same setting: for `CNC(=O)[C@@H](NC(=O)[C@@H]1CN(C(=O)c2cnn(Cc3ccc(C(=O)O)cc3)c2)CC12CN(C(=O)[C@H]1CC1(C)C)C2)[C@@H](C)OCc1ccccc1` [I-476] the value was over 20 µM.

With `C[C@@H](OCC1CCCCC1)[C@H](NC(=O)[C@@H]1CN(C(=O)c2cnn(Cc3ccccc3)c2)CC12CN(C(=O)[C@H]1CC1(C)C)C2)C(=O)O` [I-477], the IC50 in assay [1] (72 h) was over 20 µM. Still for that read-out and setting: for `C[C@@H](OCC1CCCCC1)[C@H](NC(=O)[C@@H]1CN(C(=O)c2cnn(Cc3ccccc3)c2)CC12CN(C(=O)[C@H]1CC1(C)C)C2)C(=O)NCCC(=O)OC(C)(C)C` [I-478] the value was at most 0.5 µM; for `CC1(C)C[C@@H]1C(=O)N1CC2(CN(C(=O)c3cncs3)C[C@H]2C(=O)NC(c2cccc(C3CCCCC3)n2)C2CCOC2)C1` (stereo partly shown) [I-493], 5 to 20 µM. The same measure, in the same setting: as for `CC1(C)C[C@@H]1C(=O)N1CC2(CN(C(=O)c3cncs3)C[C@H]2C(=O)NC(c2cccc(C3CCCCC3)n2)C2CCCO2)C1` (stereo partly shown) [I-495], the figure is 0.5 to 5 µM; as for `CC1(C)C[C@@H]1C(=O)N1CC2(CN(C(=O)c3cncs3)C[C@H]2C(=O)NC(c2cccc(C3CCOCC3)n2)C2CCCO2)C1` (stereo partly shown) [I-497], over 20 µM; as for `CNC(=O)[C@@H](NC(=O)C1(C)CN(C(=O)c2cnn(Cc3ccccc3)c2)CC12CN(C(=O)[C@H]1CC1(C)C)C2)[C@@H](C)OCc1ccccc1` (stereo partly drawn) [I-498, 6-(1-benzyl-1H-pyrazole-4-carbonyl)-N-((2S,3R)-3-(benzyloxy)-1-(methylamino)-1-oxobutan-2-yl)-2-((S)-2,2-dimethylcyclopropane-1-carbonyl)-8-methyl-2,6-diazaspiro[3.4]octane-8-carboxamide], over 20 µM.

As to `CNC(=O)[C@@H](NC(=O)[C@]1(C)CN(C(=O)c2cnn(Cc3ccccc3)c2)CC12CN(C(=O)[C@H]1CC1(C)C)C2)[C@@H](C)OCC1CCCCC1` [I-499A], the IC50 in assay [1] (72 h) is over 20 µM. On the same count and under the same terms, as for `CNC(=O)[C@@H](NC(=O)[C@@]1(C)CN(C(=O)c2cnn(Cc3ccccc3)c2)CC12CN(C(=O)[C@H]1CC1(C)C)C2)[C@@H](C)OCC1CCCCC1` [I-499B], the figure is over 20 µM; as for `CNC(=O)[C@@H](NC(=O)C1(F)CN(C(=O)c2cnn(Cc3ccccc3)c2)CC12CN(C(=O)[C@H]1CC1(C)C)C2)[C@@H](C)OCC1CCCCC1` (stereo partly shown) [I-501], 0.5 to 5 µM.
